What all share (type): cell-based
Assay [1] concerns A549 human lung carcinoma. Briefly: Cytotoxicity, A549 cells. The conditions noted are these: read-out: Cytoxicity IC50 A549. The text has this:
(§1) Cytoxicity of trunkamide A and derivatives IC50 (molar).
(§2) Methodology: after Berjeron et al, Biochem and Bioph Res. Comm., 1984, 121, 3,848854 388=Murine lymphoma. A549=lung carcinoma. . HT-29=human colon carcinoma MEL-28=human melanoma. DU145=human prostate carcinoma.

A further assay has as its system MEL-28 human melanoma. Briefly: Cytotoxicity, MEL28 cells. Conditions: MEL-28 human melanoma cells; read-out: Cytoxicity IC50 MEL28.
From the text: as §1, §2

The next assay has as its system P388 murine lymphoma. In words: Cytotoxicity, P388 cells. Conditions: read-out: Cytoxicity IC50 P388.
From the text: as §1, §2

Assay [2] relates to DU145 human prostate carcinoma. In words: Cytotoxicity, DU145 cells. Conditions: read-out: Cytoxicity IC50 DU145.
From the text: as §1, §2

Assay [3] has as its system HT-29 human colon carcinoma. Briefly: Cytotoxicity, HT29 cells. The conditions noted are these: HT-29 human colon carcinoma cells; read-out: Cytoxicity IC50 HT29.
From the text: as §1, §2

*1 amine or outer side, *2 acyl side, *3 side chain or, on linkers, in order; H or OH if unused. Where a SMILES comes first, the peptide text is derived from it. [ ]: non-standard residue; d: D form. The star is where a group is joined. X1 = O=C([C@@H]1CSC([C@@H](Cc2ccccc2)N[*:1])=N1)[*:2]; X2 = C=CC(C)(C)O[C@H](C)C(N[*:1])C(=O)[*:2]; Allyl(1,1-Me2) = C=CC(C)(C)*

Turning to `C=CC(C)(C)OC[C@@H]1NC(=O)C([C@@H](C)OC(C)(C)C=C)NC(=O)[C@@H]2CSC(=N2)[C@@H](Cc2ccccc2)NC(=O)[C@@H]2CCCN2C(=O)[C@H](C)NC(=O)[C@H]([C@@H](C)CC)NC1=O` (stereo partly drawn) [Compound 9, Cyclo[D-Phe-Tzn-Thr(rPr)-Ser(rPr)-Ile-Ala-Pro]] (cyclo(AP[X1][X2]S(Allyl(1,1-Me2))I)), the IC50 in assay [1] is 1.2 µM; with MEL-28 human melanoma, 12 µM; in the assay with P388 murine lymphoma it was 1.2 µM; in assay [2], 1.2 µM; in assay [3], 1.2 µM.
As to “Cyclo [Compound 10, Cyclo [L-Phe-Tzn-Thr(rPr)-Ser(rPr)-Ile-Ala-Pro]]”, the IC50 (in assay [1]; in the assay with MEL-28 human melanoma; in the assay with P388 murine lymphoma; in assay [2]; in assay [3]) was 1.2 µM in each case.
As to “Cyclo [Compound 11, Cyclo [L-Phe-Tzn-Thr (tBu)-Ser(tBu)-Ile-Ala-Pro]]”, the IC50 (in assay [1]; in the assay on MEL-28 human melanoma; with P388 murine lymphoma; in assay [2]; in assay [3]) was over 6.2 µM in each case.
With “Cyclo [Compound 12, Cyclo [L-Phe-Oxa-Thr(tBu)-Ser(tBu)-Ile-Ala-Pro]]”, the IC50 in assay [1] was 3.1 µM; in the assay on MEL-28 human melanoma it was over 6.1 µM; in the assay with P388 murine lymphoma it was 3.1 µM; in assay [2] it was over 6.1 µM; in assay [3], 3.1 µM.

For orientation: IC50 means the point on the concentration scale where inhibition reaches its midpoint.

These data come from patent US7531506B2, “Process for producing trunkamide a compounds” (Pharma Mar, S.A., priority 2001, dated 2009).
